According to paper PMC6471177 (Pharmaceutics, 2019):
pIC50: −log10 of the molar value.

Columns and labels:
[1] = Disappearance of docetaxel in rat hepatic microsomes with LC478; assay type: in vitro ADME; details: rat hepatic microsomes, LC478 1, 5, 10 µM
Procedure: (§1) The hepatic and intestinal microsomes were prepared based on a similar reported method.
(§2) Adding 0.1 M phosphate buffer (pH 7.4) adjusted the total volume as 0.5 mL, and then the components were incubated at 37 °C using a thermomixer at 500 opm. After incubation of 15 and 30 min for the hepatic and intestinal microsomes, respectively, 1 mL of acetonitrile with 5 µg/mL of paclitaxel as an internal standard added to terminate the reaction.
(§3) The unweighted kinetic data from rat hepatic and intestinal microsomes were fitted using a single-site Michaelis–Menten Equation V = Vmax × [S]/(Km + [S])(4) where [S] is the substrate concentration, Vmax is maximal velocity, and Km is substrate concentration for half-maximal velocity. The CLint was calculated by dividing the Vmax by the Km.

[2] = Rat plasma protein binding of docetaxel by equilibrium dialysis; assay type: in vitro ADME; details: LC478 0.1 and 10 μg/mL
Procedure: A 1 mL of the plasma was dialyzed against 1 mL of isotonic Sørensen phosphate buffer (pH 7.4) containing 3% dextran (w/v) in a dialysis cell (Spectrum Medical Industries, Laguna Hills, CA, USA) using a Spectra/Por 4 membrane (mol. wt. cutoff 12−14 KDa; Spectrum Medical Industries, USA).

P-gp = target: T1, P-gp (Homo sapiens, UniProt P08183); test: Intracellular accumulation of docetaxel in Caco-2 cells (P-gp inhibition); assay type: cell-based
T1 construct: They were allowed to grow to confluence for 5 days to obtain higher expressions of P-gp; endogenous in cells; host or cells: Caco-2

[3] = MTT cell viability assay in Caco-2 cells; assay type: cell-based; details: human; Caco-2 cells, 0.001 to 100 µM, 24 h, MTT
Procedure: (§4) Caco-2 cells were obtained from the Korean Cell Line Bank (Seoul, Korea). The cells were maintained in Dulbecco’s modified Eagle’s medium (DMEM) supplemented with 10% fetal bovine serum, 1% non-essential amino acids, and 100 U/mL penicillin and gentamicin at 37 °C in a humidified 5% CO2 atmosphere.
(§5) The effect of LC478 on cell viability was assessed by an MTT assay. LC478 was dissolved in diluted in 100% dimethyl sulfoxide (DMSO) and diluted with cell culture media. Caco-2 cells were seeded in 96-well plates at 1 × 10^5 cells/mL. A 100 μL of LC478 in cell culture media was treated on the plates to achieve final concentration of LC478 in the ranges of 0.001 to 100 μM, which was incubated for 24 h. After adding 10 μL/well of MTT ([…]) and incubating them for 24 h, the supernatants of the cultures were removed and replaced with 100 μL of DMSO. The cell viability rate (%) was calculated as the absorbance of treated cells divided by that of control cells. The viability of the control cells was defined as 100%.

Caco-2 cells = test: MTT cell viability assay in Caco-2 cells; assay type: cell-based; details: even at 100 µM, 24 h incubation
Procedure: as §4, §5

[4] = LC478 concentration in intestine after oral administration and [I]/IC50 prediction; assay type: in vivo; details: our unpublished data
Procedure: Concentration of LC478 was determined using a HPLC-UV system. A 50 µL aliquot of acetonitrile was added to a 50 µL aliquot of biological sample. After vortex-mixing and centrifugation, the supernatant was evaporated (Dry Thermo Bath MG-2200, Eyela, Tokyo, Japan) under a soft stream of nitrogen gas at 50 °C. The residue was reconstituted in 60 µL mobile phase and a 50 µL aliquot of the supernatant was loaded onto a reverse-phase C18 column (SunFireTM; 150 mm. ℓ. × 4.6 mm. i.d.; particle size, 5 µm; Waters, Milford, MA, USA). […]. The retention time of LC478 was approximately 7.8 min, and the quantitation limit was 0.1 µg/mL.

[5] = system: P-gp overexpressing MES-SA/DX5 sarcoma cells; details: cited from earlier work
[6] = Disappearance of docetaxel in rat intestinal microsomes with LC478; assay type: in vitro ADME; details: rat intestinal microsomes, LC478 1, 5, 10 µM
Procedure: as §1, §2, §3

T1 sequence (P08183 whole entry): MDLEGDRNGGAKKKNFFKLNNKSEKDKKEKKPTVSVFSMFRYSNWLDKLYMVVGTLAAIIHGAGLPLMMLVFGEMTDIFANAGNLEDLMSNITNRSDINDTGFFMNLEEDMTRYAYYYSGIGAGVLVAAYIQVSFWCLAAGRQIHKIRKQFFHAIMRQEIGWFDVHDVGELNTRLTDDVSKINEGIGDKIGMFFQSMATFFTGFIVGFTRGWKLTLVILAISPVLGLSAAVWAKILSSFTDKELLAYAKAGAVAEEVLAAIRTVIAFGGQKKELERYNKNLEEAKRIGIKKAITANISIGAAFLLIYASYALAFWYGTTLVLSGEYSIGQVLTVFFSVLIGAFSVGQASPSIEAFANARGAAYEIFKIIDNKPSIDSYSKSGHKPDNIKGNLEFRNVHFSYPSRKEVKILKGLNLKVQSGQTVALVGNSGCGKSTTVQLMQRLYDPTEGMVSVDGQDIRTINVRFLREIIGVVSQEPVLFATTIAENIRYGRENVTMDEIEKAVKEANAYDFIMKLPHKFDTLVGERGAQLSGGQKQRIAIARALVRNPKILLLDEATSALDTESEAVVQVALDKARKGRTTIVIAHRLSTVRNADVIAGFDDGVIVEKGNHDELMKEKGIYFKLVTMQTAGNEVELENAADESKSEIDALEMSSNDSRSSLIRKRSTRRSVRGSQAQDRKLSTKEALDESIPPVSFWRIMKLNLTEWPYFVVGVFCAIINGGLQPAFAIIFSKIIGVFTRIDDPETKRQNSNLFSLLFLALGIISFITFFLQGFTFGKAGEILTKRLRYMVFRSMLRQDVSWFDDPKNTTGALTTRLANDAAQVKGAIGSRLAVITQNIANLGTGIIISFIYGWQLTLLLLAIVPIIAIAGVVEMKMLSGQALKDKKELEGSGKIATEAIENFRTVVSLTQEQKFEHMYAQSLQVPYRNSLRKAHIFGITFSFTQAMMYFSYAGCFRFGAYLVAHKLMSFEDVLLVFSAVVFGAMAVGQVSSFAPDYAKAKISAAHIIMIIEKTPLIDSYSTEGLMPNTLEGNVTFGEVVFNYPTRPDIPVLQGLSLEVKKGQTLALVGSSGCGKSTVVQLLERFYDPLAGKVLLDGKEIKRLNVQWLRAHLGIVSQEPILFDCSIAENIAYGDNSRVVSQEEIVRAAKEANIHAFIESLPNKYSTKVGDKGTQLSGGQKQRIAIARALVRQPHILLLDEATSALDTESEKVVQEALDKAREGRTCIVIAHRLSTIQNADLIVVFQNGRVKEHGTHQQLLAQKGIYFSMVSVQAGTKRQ

In the case of `COC(=O)c1cccc(NC(=O)COc2ccc(C34CC5CC(CC(C(=O)N6CCN(Cc7ccc(C(F)(F)F)cc7)CC6)(C5)C3)C4)cc2)c1` [LC478], the “effect on hepatic metabolism of docetaxel” value [1] was “not inhibited”, the “effect on protein binding of docetaxel in rat plasma” value [2] was “did not affect” and the pIC50 (P-gp) was 6.22. For the same compound, the viability at 24 h [3] was 97 to 100%, the “toxicity to Caco-2 cells” value (Caco-2 cells) was “not toxic” and the “LC478 concentration in the intestine” value ([4]; after oral administration of 30 mg/kg LC478) was 3.25 to 5.18 µM. The “LC478 concentration in the intestine” value ([4]; after oral administration of 100 mg/kg LC478) was 9.37 to 12.3 µM, the “effect on P-gp mediated efflux of paclitaxel” value [5] was “reversed P-gp mediated efflux activity” and the intrinsic cytotoxicity [5] was “without intrinsic cytotoxicity”. The “effect on intestinal metabolism of docetaxel” value [6] was “not inhibited”.
